Results reported in publication PMC7993393, “8-Mercaptoguanine-based inhibitors of Mycobacterium tuberculosis dihydroneopterin aldolase: synthesis, in vitro inhibition and docking studies” (Journal of Enzyme Inhibition and Medicinal Chemistry, 2021).

Experiments:
MtFolB [1] = target: T1, MtFolB (Mycobacterium tuberculosis, UniProt P9WNC5); test: MtFolB aldolase activity inhibition, continuous fluorescence assay (IC50); type: biochemical
T1 construct: made in house

[2] = target: 6-hydroxymethyl-7,8-dihydropterin pyrophosphokinase from S. aureus (SaHPPK); design: method as in PMID 22276115; conditions: read-out: IC50 against SaHPPK; cited from earlier work
SaFolB = test system: SaFolB; design: method as in PMID 15027862; conditions: read-out: IC50 against SaFolB; cited from earlier work
MtFolB [3] = target: T1, MtFolB; test: Mode of inhibition and inhibition constants on MtFolB aldolase activity (Lineweaver-Burk); type: biochemical; conditions: towards DHNP; for Inhibition mode: Lineweaver-Burk plots; for Ki: enzyme-inhibitor complex, read-out: Kis; for Ki / Kii: 300 nM MtFolB; for Kii: enzyme-substrate-inhibitor complex

T1 sequence (P9WNC5 whole entry): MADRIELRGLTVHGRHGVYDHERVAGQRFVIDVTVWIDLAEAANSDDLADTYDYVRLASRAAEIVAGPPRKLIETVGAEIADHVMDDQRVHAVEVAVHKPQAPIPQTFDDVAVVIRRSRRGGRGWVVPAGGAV

SMILES	IC50 (MtFolB [1]) [nM]	melting point [°C]	also measured
Nc1nc2nc(S)[nH]c2c(=O)[nH]1 [8-MG (1), 8-mercaptoguanine]	300	–	IC50 [2]: 41000 nM; IC50 (SaFolB): 1000 nM; Inhibition mode (MtFolB [3]): Non-competitive; Ki (MtFolB [3]): 300 ± 100 nM; Kii (MtFolB [3]): 0.6 ± 0.1 µM
Nc1nc2[nH]c(SCc3ccccc3)nc2c(=O)[nH]1 [Compound 2a, 2-Amino-8-(benzylthio)-1,9-dihydro-6H-purin-6-one]	7100	–	–
Nc1nc2[nH]c(SCc3ccc4ccccc4c3)nc2c(=O)[nH]1 [Compound 2b, 2-Amino-8-((naphthalen-2-ylmethyl)thio)-1,9-dihydro-6H-purin-6-one]	1300	286 to 287	Improvement of activity (fold) (MtFolB [1]; IC50 compared to benzyl derivative 2a): more than 5 fold
Nc1nc2[nH]c(SCc3ccccc3F)nc2c(=O)[nH]1 [Compound 2c, 2-Amino-8-((2-fluorobenzyl)thio)-1,9-dihydro-6H-purin-6-one]	8000	289 to 290	–
Nc1nc2[nH]c(SCc3ccc(F)cc3)nc2c(=O)[nH]1 [Compound 2d, 2-Amino-8-((4-fluorobenzyl)thio)-1,9-dihydro-6H-purin-6-one]	8000	299 to 300	–
Nc1nc2[nH]c(SCc3ccccc3Cl)nc2c(=O)[nH]1 [Compound 2e, 2-Amino-8-((2-chlorobenzyl)thio)-1,9-dihydro-6H-purin-6-one]	4200	–	–
Nc1nc2[nH]c(SCc3ccc(Cl)cc3)nc2c(=O)[nH]1 [Compound 2f, 2-Amino-8-((4-chlorobenzyl)thio)-1,9-dihydro-6H-purin-6-one]	2200	291 to 294	–
Nc1nc2[nH]c(SCc3ccc(Cl)c(Cl)c3)nc2c(=O)[nH]1 [Compound 2g]	5500	290 to 291	IC50 fold higher (MtFolB [1]; IC50 compared to monosubstituted analog 2f): 2.5 fold
Nc1nc2[nH]c(SCc3ccc(Br)cc3)nc2c(=O)[nH]1 [Compound 2h, 2-Amino-8-((4-bromobenzyl)thio)-1,9-dihydro-6H-purin-6-one]	3000	–	–
Nc1nc2[nH]c(SCC(=O)c3ccccc3)nc2c(=O)[nH]1 [Compound 3a, 2-Amino-8-((2-oxo-2-phenylethyl)thio)-1,9-dihydro-6H-purin-6-one]	900	> 310	–
Nc1nc2[nH]c(SCC(=O)c3ccc(Cl)cc3)nc2c(=O)[nH]1 [Compound 3b, 2-Amino-8-((2–(4-chlorophenyl)-2-oxoethyl)thio)-1,9-dihydro-6H-purin-6-one]	300	300 to 316	Inhibition mode (MtFolB [3]): Non-competitive; Ki (MtFolB [3]): 400 ± 100 nM; Kii (MtFolB [3]): 0.9 ± 0.2 µM
COc1ccccc1C(=O)CSc1nc2nc(N)[nH]c(=O)c2[nH]1 [Compound 3c, 2-Amino-8-((2–(2-methoxyphenyl)-2-oxoethyl)thio)-1,9-dihydro-6H-purin-6-one]	1300	–	–
Nc1nc2[nH]c(SCC(=O)Nc3ccccc3)nc2c(=O)[nH]1 [Compound 4a, 2-((2-Amino-6-oxo-6,9-dihydro-1H-purin-8-yl)thio)-N-phenylacetamide]	2200	–	–
Nc1nc2[nH]c(SCC(=O)Nc3ccc4ccccc4c3)nc2c(=O)[nH]1 [Compound 4b, 2-((2-Amino-6-oxo-6,9-dihydro-1H-purin-8-yl)thio)-N-(naphthalen-2-yl)acetamide]	700	286 to 289	–
Nc1nc2[nH]c(SCC(=O)NCc3ccccc3)nc2c(=O)[nH]1 [Compound 4c, 2-((2-Amino-6-oxo-6,9-dihydro-1H-purin-8-yl)thio)-N-benzylacetamide]	12300	–	–
Nc1nc2[nH]c(SCC(=O)Nc3ccc(F)cc3)nc2c(=O)[nH]1 [Compound 4d, 2-((2-Amino-6-oxo-6,9-dihydro-1H-purin-8-yl)thio)-N-(4-fluorophenyl)acetamide]	2000	–	–
Nc1nc2[nH]c(SCC(=O)Nc3ccc(Cl)cc3)nc2c(=O)[nH]1 [Compound 4e, 2-((2-Amino-6-oxo-6,9-dihydro-1H-purin-8-yl)thio)-N-(4-chlorophenyl)acetamide]	800	–	–
Nc1nc2[nH]c(SCC(=O)Nc3ccc(Br)cc3)nc2c(=O)[nH]1 [Compound 4f, 2-((2-Amino-6-oxo-6,9-dihydro-1H-purin-8-yl)thio)-N-(4-bromophenyl)acetamide]	500	> 310	Inhibition mode (MtFolB [3]): Competitive; Ki (MtFolB [3]): 100 ± 30 nM
CCCc1ccc(NC(=O)CSc2nc3c(=O)[nH]c(N)nc3[nH]2)cc1 [Compound 4g, 2-((2-Amino-6-oxo-6,9-dihydro-1H-purin-8-yl)thio)-N-(4-propylphenyl)acetamide]	900	–	–
CCCCCCCc1ccc(NC(=O)CSc2nc3c(=O)[nH]c(N)nc3[nH]2)cc1 [Compound 4h, 2-((2-Amino-6-oxo-6,9-dihydro-1H-purin-8-yl)thio)-N-(4-heptylphenyl)acetamide]	400	> 310	Inhibition mode (MtFolB [3]): Non-competitive; Ki (MtFolB [3]): 500 ± 100 nM; Kii (MtFolB [3]): 1.2 ± 0.2 µM
